Where only a bound is given, the exact number is not on record here.

The target in this test is T1, UCHL1 (Homo sapiens, UniProt P09936).
T1 construct: made in house; host or cells: HEK293T
T1 sequence (P09936 1-223): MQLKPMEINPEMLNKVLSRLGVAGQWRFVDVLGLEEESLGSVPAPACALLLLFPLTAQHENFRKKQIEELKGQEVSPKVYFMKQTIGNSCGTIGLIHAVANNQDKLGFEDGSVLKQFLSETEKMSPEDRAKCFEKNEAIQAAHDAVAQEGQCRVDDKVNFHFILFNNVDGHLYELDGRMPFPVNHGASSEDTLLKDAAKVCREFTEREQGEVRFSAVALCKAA
The test is described as follows: UCHL1 biochemical IC50 assay (fluorescence polarisation). As to conditions: 30 min enzyme/compound pre-incubation at room temp, read after 2 hr incubation, read-out: Activity range (UCHL1 biochemical IC50 assay). The procedure, abridged: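 FLAG-UCHL1 purified from transfected HEK293T cells was preincubated 30 min at room temperature with compound (8 points, 100–0.03 μM final) in Tris pH 7.5 buffer with Tween 20, BSA and beta-mercaptoethanol. Reaction started with 50 nM TAMRA-peptide–ubiquitin isopeptide substrate; fluorescence polarisation (ex 540/em 590 nm) read at once and after 2 h.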
For orientation: Polarisation of emitted light reports the rotation of a fluorescent probe.
As usually defined, the IC50 is the point on the concentration scale where inhibition reaches its midpoint. Regarding `N#CN1CC[C@H](C(=O)Nc2nc3ccc(-n4nccn4)cc3s2)C1` [Example 63, (S)-N-(6-(2H-1,2,3-triazol-2-yl)benzo[d]thiazol-2-yl)-1-cyano-pyrrolidine-3-carboxamide], the IC50 is 1000 to 10000 nM.

Turning to `N#CN1CCC(C#N)(C(=O)Nc2ncc(-c3ccccc3)s2)C1` (stereo not drawn) [Example 81, 1,3-dicyano-N-(5-phenylthiazol-2-yl)pyrrolidine-3-carboxamide], the IC50 lay in the range of 1000 to 10000 nM.

Consider `N#CN1CC[C@H](C(=O)Nc2cc(-c3cnc4nccn4c3)ccn2)C1` [Example 255, (S)-1-cyano-N-(4-(imidazo[1,2-a]pyrimidin-6-yl)pyridin-2-yl)pyrrolidine-3-carboxamide], for which the IC50 is under 1000 nM.

Regarding `COc1cccc(-n2cnc(NC(=O)[C@H]3CCN(C#N)C3)c2)c1` [Example 183, (S)-1-cyano-N-(1-(3-methoxyphenyl)-1H-imidazol-4-yl)pyrrolidine-3-carboxamide], the IC50 was under 1000 nM.

`C[C@H]1[C@@H](C(=O)Nc2ncc(-c3ccc(F)cc3)s2)CCN1C#N` [Example 73, (2S,3S)-1-cyano-N-(5-(4-fluorophenyl)thiazol-2-yl)-2-methylpyrrolidine-3-carboxamide]: the IC50 was under 1000 nM.

For `COc1ccc(-c2cc(NC(=O)C3CCN(C#N)C3)on2)cc1` (stereo not drawn) [Example 14, 1-cyano-N-(3-(4-methoxyphenyl)isoxazol-5-yl)pyrrolidine-3-carboxamide], the IC50 lay within 1000 to 10000 nM.

As to `N#CN1CC[C@H](C(=O)Nc2ncc(-c3cccc(C(N)=O)c3)s2)C1` [Example 232, (S)-N-(5-(3-carbamoylphenyl)thiazol-2-yl)-1-cyanopyrrolidine-3-carboxamide], the IC50 was under 1000 nM.

On to `N#CN1CC[C@H](C(=O)Nc2cn(C3CCN(C(=O)c4ccccc4)C3)cn2)C1` (stereo partly drawn) [Example 185, (3S)—N-(1-(1-benzoylpyrrolidin-3-yl)-1H-imidazol-4-yl)-1-cyanopyrrolidine-3-carboxamide], for which the IC50 was under 1000 nM.

With `N#CN1CC[C@H](C(=O)Nc2cc3cc(-c4cn[nH]c4C(F)(F)F)ccc3cn2)C1` [Example 289, (S)-1-cyano-N-(6-(5-(trifluoromethyl)-1H-pyrazol-4-yl)isoquinolin-3-yl)pyrrolidine-3-carboxamide], the IC50 was under 1000 nM.

Consider `N#CN1CC[C@H](C(=O)Nc2cc(-c3ccncc3)ncn2)C1` [Example 274, (S)-1-cyano-N-(6-(pyridin-4-yl)pyrimidin-4-yl)pyrrolidine-3-carboxamide], for which the half-inhibitory concentration (IC50) was in the range of 1000 to 10000 nM.

On to `N#CN1CCC(C(=O)Nc2ccc(-c3ccccc3)nc2)C1` (stereo not drawn) [Example 35, 1-cyano-N-(6-phenylpyridin-3-yl)pyrrolidine-3-carboxamide], for which the IC50 lay in the range of 1000 to 10000 nM.

Turning to `N#CN1CC(C(=O)Nc2ncc(-c3ccccc3)s2)C2CC21` (stereo not drawn) [Example 280, 2-cyano-N-(5-phenylthiazol-2-yl)-2-azabicyclo[3.1.0]hexane-4-carboxamide], the half-inhibitory concentration (IC50) fell in the range of 1000 to 10000 nM.

On to `CC(NS(=O)(=O)c1ccc(NC(=O)[C@H]2CCN(C#N)C2)nc1)c1ccccc1` (stereo partly drawn) [Example 207, (3S)-1-cyano-N-(5-(N-(1-phenylethyl)sulfamoyl)pyridin-2-yl)pyrrolidine-3-carboxamide], for which the IC50 lay within 1000 to 10000 nM.

Regarding `C#Cc1ccc2cnc(NC(=O)[C@H]3CCN(C#N)[C@H]3C)cc2c1` [Example 264, (2S,3S)-1-cyano-N-(6-ethynylisoquinolin-3-yl)-2-methylpyrrolidine-3-carboxamide], the IC50 is 1000 to 10000 nM.

Consider `N#CN1CC[C@H](C(=O)Nc2ncc(-c3ccc4cn[nH]c4c3)s2)C1` [Example 222, (S)-N-(5-(1H-indazol-6-yl)-2-yl)-1-cyanopyrrolidine-3-carboxamide], for which the IC50 was under 1000 nM.

For `N#CN1CC[C@H](C(=O)Nc2cn(-c3ccc4[nH]ncc4c3)cn2)C1` [Example 300, (S)-N-(1-(1H-indazol-5-yl)-1H-imidazol-4-yl)-1-cyanopyrrolidine-3-carboxamide], the concentration for half-maximal inhibition (IC50) is under 1000 nM.

Consider `N#CN1CCC(C(=O)Nc2ncc(CN3CCOCC3)s2)C1` (stereo not drawn) [Example 140, 1-cyano-N-(5-(morpholinomethyl)thiazol-2-yl)pyrrolidine-3-carboxamide], for which the IC50 is under 1000 nM.

Turning to `Cc1noc(C)c1-c1ccc2sc(NC(=O)C3CCN(C#N)C3)nc2c1` (stereo not drawn) [Example 119, 1-cyano-N-(5-(3,5-dimethylisoxazol-4-yl)benzo[d]thiazol-2-yl)pyrrolidine-3-carboxamide], the IC50 fell in the range of 1000 to 10000 nM.

In the case of `N#CN1CC[C@H](C(=O)Nc2cc(-c3ccnc4ccnn34)ccn2)C1` [Example 251, (S)-1-cyano-N-(4-(pyrazolo[1,5-a]pyrimidin-7-yl)pyridin-2-yl)pyrrolidine-3-carboxamide], the IC50 is under 1000 nM.

On to `Cc1ccnc(-n2cnc(NC(=O)[C@H]3CCN(C#N)C3)c2)c1` [Example 174, (S)-1-cyano-N-(1-(4-methylpyridin-2-yl)-1H-imidazol-4-yl)pyrrolidine-3-carboxamide], for which the IC50 was under 1000 nM.

As to `N#CN1CC[C@H](C(=O)Nc2ncc(-c3ccc(Cl)c(C(N)=O)c3)s2)C1` [Example 237, (S)-N-(5-(3-carbamoyl-4-chlorophenyl)thiazol-2-yl)-1-cyanopyrrolidine-3-carboxamide], the IC50 is under 1000 nM.

Regarding `CS(=O)(=O)N1CCc2nc(NC(=O)[C@H]3CCN(C#N)C3)sc2C1` [Example 202, (S)-1-cyano-N-(5-(methylsulfonyl)-4,5,6,7-tetrahydrothiazolo[5,4-c]pyridin-2-yl)pyrrolidine-3-carboxamide], the IC50 was under 1000 nM.

Take `CNC(=O)c1ccc2cnc(NC(=O)[C@H]3CCN(C#N)C3)cc2c1` [Example 260, (S)-3-(1-cyanopyrrolidine-3-carboxamido)-N-methylisoquinoline-6-carboxamide]: the IC50 is 1000 to 10000 nM.

As for `N#CN1CC[C@H](C(=O)Nc2ncc(N3CCc4ccccc4C3)s2)C1` [Example 98, (S)-1-cyano-N-(5-(3,4-dihydroisoquinolin-2(1H)-yl)thiazol-2-yl)pyrrolidine-3-carboxamide], the IC50 was in the range of 1000 to 10000 nM.

As to `COC1(C(=O)Nc2ncc(-c3ccccc3)s2)CCN(C#N)C1` (stereo not drawn) [Example 284, 1-cyano-3-methoxy-N-(5-phenylthiazol-2-yl)pyrrolidine-3-carboxamide], the IC50 is under 1000 nM.

Consider `C[C@@H]1CN(C#N)C[C@H]1C(=O)Nc1ncc(-c2ccccc2Cl)s1` (racemic) [Example 84, (±)-trans-N-(5-(2-chlorophenyl)thiazol-2-yl)-1-cyano-4-methylpyrrolidine-3-carboxamide], for which the IC50 fell in the range of 1000 to 10000 nM.

As for `N#CN1CCC(C(=O)Nc2ccc(N3CCOCC3)cn2)C1` (stereo not drawn) [Example 28, 1-cyano-N-(5-morpholino-pyridin-2-yl)pyrrolidine-3-carboxamide], the concentration for half-maximal inhibition (IC50) lay in the range of 1000 to 10000 nM.

In the case of `COc1cc(-n2cnc(NC(=O)[C@H]3CCN(C#N)C3)c2)ccc1C#N` [Example 307, (S)-1-cyano-N-(1-(4-cyano-3-methoxyphenyl)-1H-imidazol-4-yl)pyrrolidine-3-carboxamide], the IC50 was under 1000 nM.

`N#Cc1ccc(-n2cnc(NC(=O)[C@H]3CCN(C#N)C3)c2)cc1` [Example 177, (S)-1-cyano-N-(1-(4-cyanophenyl)-1H-imidazol-4-yl)pyrrolidine-3-carboxamide]: the IC50 is under 1000 nM.

For the molecule `Cc1ccc2nc(NC(=O)C3CCN(C#N)C3)sc2c1` (stereo not drawn) [Example 19, 1-cyano-N-(6-methylbenzo[d]thiazol-2-yl)pyrrolidine-3-carboxamide], the IC50 is 1000 to 10000 nM.

These data come from US11472798B2 (Mission Therapeutics Limited, priority 2014, dated 2022).
